# Reference: patent US12234211B2, “Cycloolefin substituted heteroaromatic compounds and their use” (HUTCHISON MEDIPHARMA LIMITED, priority 2017, dated 2025)
# Experiments:
# [1] = Metabolic stability test in liver microsomes (rat); format: in vitro ADME; conditions: percentage of remaining compound after incubation for 30 minutes vs 0 minute; 1 μM compound; 0.5 mg/mL liver microsomes; 37° C.
# Protocol: (§1) Male CD1 mouse liver microsomes was supplied by Research Institute for Liver Diseases (Shanghai) Co., Ltd. Male SD rat liver microsomes was supplied by BioreclamationIVT in US.
# (§2) Phenacetin, glucose-6-phosphate (G-6-P), glucose-6-phosphate dehydrogenase (G-6-PD), and nicotinamide adenine dinucleotide phosphate (NADP) were supplied by Sigma-Aldrich (Missouri, USA).
# (§3) 10 mM stock solution of test compound: Certain amount of test compound was weighed and dissolved in certain volume of dimethylsulfoxide (DMSO) to get the stock solution of test compound at 10 mM.
# (§4) Reaction termination solution: Certain amount of phenacetin as internal standard was weighed and dissolved in acetonitrile to get the reaction termination solution at 1000 ng/mL, and stored at room temperature for use.
# (§5) The stock solution of test compound was diluted to the designated concentration with organic solution (usually the mixtures of acetonitrile, methanol and water with different portions depending on the compound solution) to make the final concentration to be 1 μM and the contents of organic solvents no more than 1% (For DMSO, the controlled margin was 0.1%) in the final incubation system. 100 mM NADP, 500 mM G-6-P and 100 U/mL G-6-PDH were mixed and diluted with ultrapure water to provide the NADPH regenerating system containing 1 mM NADP, 5 mM G-6-P and 1 U/mL G-6-PD, which was pre-incubated at 37° C. water-bath for 10 min and then cooled on ice until being added into the reaction system. 20 mg/mL liver microsomes was mixed with 200 mM PBS and diluted with ultrapure water to make the concentrations of liver microsomes and PBS to be 0.5 mg/mL and 50 mM in the final incubation system, respectively. After the diluted liver microsomes was mixed with the NADPH regenerating solution, certain volumes of 100 mM EDTA and 300 mM MgCl2 (concentration of EDTA and MgCl2 in the final incubation system is 1 mM and 3 mM, respectively) were added, and the incubation system was put into 37° C. water bath. The incubation was commenced by adding the stock solution of test compound and maintained for 30 min. The incubation was terminated by adding the reaction termination solution. The 0 min sample was prepared by adding the reaction termination solution to the incubation system immediately prior to putting the system into the water bath with the addition of the stock solution of test compound. The terminated incubation mixtures were vortexed and centrifuged at 4400 rpm for 10 min, and the supernatant was collected for LC-MS/MS analysis.
# (§6) The concentration of test compound was determined using LC-MS/MS method. Using the peak area ratio of the compound and the internal standard as an index, the percentage of remaining compound after incubation for 30 minutes as compared with the 0 minute sample was calculated, and the metabolic stability of the compound was evaluated.
# IDH2-R140Q = biological target: T1, IDH2-R140Q (Homo sapiens, UniProt P48735, R140Q); test: Fluorescent determination of IDH2-R140Q cell activity (2-HG in U87MGR140Q cells); format: cell-based; conditions: 72 hours incubation, read-out: IC50 (2-HG inhibition)
# T1 construct: expressed in transfected cells
# T1 sequence (P48735 40-452 R140Q): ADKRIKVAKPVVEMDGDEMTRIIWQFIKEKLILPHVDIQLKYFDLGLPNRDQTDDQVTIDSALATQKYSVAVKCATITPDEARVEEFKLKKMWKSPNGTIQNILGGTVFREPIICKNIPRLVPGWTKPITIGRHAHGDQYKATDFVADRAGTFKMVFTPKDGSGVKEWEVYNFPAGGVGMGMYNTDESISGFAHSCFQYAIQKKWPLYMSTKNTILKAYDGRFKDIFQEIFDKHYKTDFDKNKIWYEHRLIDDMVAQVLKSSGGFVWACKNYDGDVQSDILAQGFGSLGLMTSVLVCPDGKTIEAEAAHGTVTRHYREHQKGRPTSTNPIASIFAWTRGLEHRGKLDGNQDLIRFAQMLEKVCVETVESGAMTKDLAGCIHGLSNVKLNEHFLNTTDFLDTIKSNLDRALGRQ
# [2] = Metabolic stability test in liver microsomes (mouse); format: in vitro ADME; conditions: percentage of remaining compound after incubation for 30 minutes vs 0 minute; 1 μM compound; 0.5 mg/mL liver microsomes; 37° C.
# Protocol: as §1, §2, §3, §4, §5, §6
# IDH1-R132H = biological target: T2, IDH1-R132H (Homo sapiens, UniProt O75874, R132H); test: Fluorescent determination of IDH1-R132H cell activity (2-HG in U87MGR132H cells); format: cell-based; conditions: 2-HG inhibition in U87MGR132H cells transfected with IDH1-R132H mutant plasmid
# T2 construct: expressed in transfected cells; host or cells: U87MG cells (U87MGR132H)
# T2 sequence (O75874 whole entry R132H): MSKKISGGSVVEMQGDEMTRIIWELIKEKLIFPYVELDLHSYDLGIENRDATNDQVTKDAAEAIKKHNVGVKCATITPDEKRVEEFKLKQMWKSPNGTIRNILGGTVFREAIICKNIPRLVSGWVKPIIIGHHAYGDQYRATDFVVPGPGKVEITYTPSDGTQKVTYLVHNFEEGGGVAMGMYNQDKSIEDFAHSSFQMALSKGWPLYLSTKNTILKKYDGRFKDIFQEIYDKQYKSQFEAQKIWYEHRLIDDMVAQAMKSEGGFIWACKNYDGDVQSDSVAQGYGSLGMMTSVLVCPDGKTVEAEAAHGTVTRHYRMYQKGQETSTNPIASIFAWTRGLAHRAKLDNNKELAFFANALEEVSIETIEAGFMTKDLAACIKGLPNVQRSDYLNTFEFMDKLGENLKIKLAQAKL
Structure (SMILES),Rat liver microsome stability [1] [%],IC50 (IDH2-R140Q) [nM],Mouse liver microsome stability [2] [%],IC50 (IDH1-R132H) [nM]
"CC(C)Nc1nc(N[C@H](C)C(F)(F)F)nc(C2=C(F)C(O)CCC2)n1 (mixture of isomers) [Compound 1, 2-Fluoro-3-(4-(isopropylamino)-6-(((R)-1,1,1-trifluoropropan-2-yl)amino)-1,3,5-triazin-2-yl)cyclohex-2-en-1-ol]",73.8,97,83.5,–
C[C@@H](Nc1nc(NC2CCC(F)(F)C2)nc(C2=C(F)C(O)CCC2)n1)C(F)(F)F (mixture of isomers) [Compound 6],70.0,115,76.3,670
C[C@@H](Nc1nc(NC2CCC2)nc(C2=C(F)C(O)CCC2)n1)C(F)(F)F (mixture of isomers) [Compound 7],50.3,87,49.8,1500
C[C@@H](Nc1nc(N[C@@H]2CCC(F)(F)C2)nc(C2=C(F)C(O)C(F)(F)CC2)n1)C(F)(F)F (mixture of isomers) [Compound 235],89.0,130,75.5,246
C[C@H](Nc1nc(NC2CC(F)(F)C2)nc(C2=C(F)C(O)C(F)(F)CC2)n1)C(F)(F)F (mixture of isomers) [Compound 239],93.0,46,91.8,344
CC(Nc1nc(NC2CC(F)(F)C2)nc(C2=C(F)C(O)CCC2)n1)C(F)(F)F (racemic) [Compound 4],62.9,80,82.1,750
[2H]C1([2H])CCC(c2nc(NC3CC(F)(F)C3)nc(N[C@@H](C)C(F)(F)F)n2)=C(F)C1([2H])O (mixture of isomers) [Compound 90],82.4,–,80.9,–
[2H]C1([2H])CCC(c2nc(NC3CC(F)(F)C3)nc(NC3CC(F)(F)C3)n2)=C(F)C1([2H])O (racemic) [Compound 91],86.6,58,70.5,–
"CC(C)Nc1nc(N[C@H](C)C(F)(F)F)nc(C2=CC(O)CCC2)n1 (mixture of isomers) [Compound 124, 3-(4-(Isopropylamino)-6-(((R)-1,1,1-trifluoropropan-2-yl)amino)-1,3,5-triazin-2-yl)cyclohex-2-en-1-ol]",74.1,137,44.1,658
C[C@@H](Nc1nc(NC2CCC2)nc(C2=CC(O)CCC2)n1)C(F)(F)F (mixture of isomers) [Compound 128],34.0,92,15.9,–
C[C@@H](Nc1nc(NC2CCC(F)(F)C2)nc(C2=CC(O)CCC2)n1)C(F)(F)F (mixture of isomers) [Compound 177],45.9,46,31.0,94
"OC1C(F)=C(c2nc(NC3CC(F)(F)C3)nc(NC3CC(F)(F)C3)n2)CCC1F (single isomer, unassigned) [Compound 201]",91.6,45,79.3,109
"C[C@@H](Nc1nc(N)nc(C2=C(F)C(O)C(F)(F)CC2)n1)C(F)(F)F (stereo partly drawn) [Compound 280, 3-(4-Amino-6-(((R)-1,1,1-trifluoropropan-2-yl)amino)-1,3,5-triazin-2-yl)-2,6,6-trifluoro-cyclohex-2-en-1-ol]",–,> 10000,–,> 10000
C[C@@H](Nc1nc(N[C@H](C)C(F)(F)F)nc(C2=C(F)C(=O)C(F)(F)CC2)n1)C(F)(F)F [Compound 296],–,423,–,1140
CONc1nc(Nc2ccnc(C(F)(F)F)c2)nc(C2=C(F)C(O)C(F)(F)CC2)n1 (stereo not shown) [Compound 298],–,620,–,> 10000

# The remaining lines, values ahead:
Rat liver microsome stability [1] [%],IC50 (IDH2-R140Q) [nM],Mouse liver microsome stability [2] [%],IC50 (IDH1-R132H) [nM],Structure (SMILES)
91.5,110,82.7,219,[2H]C1(O)CCCC(c2nc(N[C@H](C)C(F)(F)F)nc(N[C@H](C)C(F)(F)F)n2)=C1F (mixture of isomers) [Compound 18]
96.6,–,83.7,–,"[2H]C1([2H])CCC(c2nc(N[C@H](C)C(F)(F)F)nc(N[C@H](C)C(F)(F)F)n2)=C(F)C1([2H])O (mixture of isomers) [Compound 83, 3-(4,6-bis(((R)-1,1,1-trifluoropropan-2-yl)amino)-1,3,5-triazin-2-yl)-2-fluorocyclohex-2-en-1,6,6-D3-1-ol]"
100.0,94,95.2,210,C[C@@H](Nc1nc(N[C@H](C)C(F)(F)F)nc(C2=C(F)C(O)C(F)(F)CC2)n1)C(F)(F)F (mixture of isomers) [Compound 196]
98.8,97,99.7,175,[2H]C1(O)C(F)=C(c2nc(N[C@H](C)C(F)(F)F)nc(N[C@H](C)C(F)(F)F)n2)CCC1(F)F (mixture of isomers) [Compound 211]
99.0,137,83.8,365,C[C@@H](Nc1nc(N[C@H](C)C(F)(F)F)nc(C2=C(F)C(O)CCC2)n1)C(F)(F)F (mixture of isomers) [Compound 2]
87.6,284,80.3,1020,C[C@H](Nc1nc(N[C@H](C)C(F)(F)F)nc(C2=C(F)C(O)CCC2)n1)C(F)(F)F (mixture of isomers) [Compound 11]
79.8,86,58.2,289,C[C@@H](Nc1nc(N[C@H](C)C(F)(F)F)nc(C2=CC(O)CCC2)n1)C(F)(F)F (mixture of isomers) [Compound 126]
74.8,43,80.1,317,"CC(C)Nc1nc(N[C@H](C)C(F)(F)F)nc(C2=C(F)C(O)C(F)CC2)n1 (single isomer, unassigned) [Compound 95]"
99.2,344,83.7,254,"C[C@@H](Nc1nc(N[C@H](C)C(F)(F)F)nc(C2=C(F)C(O)C(F)CC2)n1)C(F)(F)F (single isomer, unassigned) [Compound 98]"
99.5,41,98.4,120,"C[C@@H](Nc1nc(N[C@H](C)C(F)(F)F)nc(C2=C(F)C(O)C(F)(F)CC2)n1)C(F)(F)F (single isomer, unassigned) [Compound 197]"
98.2,–,91.5,–,"[2H]C1(O)C(F)=C(c2nc(N[C@H](C)C(F)(F)F)nc(N[C@H](C)C(F)(F)F)n2)CCC1F (stereo partly drawn) [Compound 266, 3-(4,6-Bis(((R)-1,1,1-trifluoropropan-2-yl)amino)-1,3,5-triazin-2-yl)-2,6-difluorocyclohex-2-en-1-D-1-ol]"
–,156,–,1030,C[C@H](Nc1nc(N[C@H](C)C(F)(F)F)nc(C2=C(F)C(O)C(F)(F)CC2)n1)C(F)(F)F (stereo partly shown) [Compound 277]
